Test system: Mild to Moderate Osteoarthritis of the Knee
Test: Phase 2 study: WOMAC (VAS) pain subscale score, target knee
Type: in vivo, human
Conditions: for WOMAC Pain Subscale Score, Avg.: Avg. of all patients; for WOMAC Pain Subscale Score, Avg. / WOMAC Pain Subscale Score: blinded, High Dose (8 spray/knee, 35 mg/knee) Cohort; for WOMAC Pain Subscale Score, cohort Avg.: low dose cohort 8.75 mg/knee BID, blinded (active + placebo), Day 1 Avg. 59.8; for difference of LS mean (8.75 mg-control), change from baseline in WOMAC pain subscale score / Change from baseline in WOMAC pain subscale score, LS mean (95% ci): Group A, 8.75 mg/knee; for difference of LS mean (8.75 mg-control), change from baseline in WOMAC pain subscale score / difference of LS mean (testing Drug-control), change from baseline in WOMAC pain subscale score: bid vs placebo; for Change from baseline in WOMAC pain subscale score, LS mean (95% ci) / Change from baseline in WOMAC pain subscale score, LS mean: bid; for difference of LS mean (testing Drug-control), change from baseline in WOMAC pain subscale score / Change from baseline in WOMAC pain subscale score, LS mean: Group C, 35 mg/knee; for WOMAC Pain Subscale Score: individual patient
Excerpt: This is a Phase 2, multicenter, randomized, double blind (within dose), placebo controlled, parallel group, proof of concept, and dose range finding study to evaluate the efficacy, safety, and PK of 2-(diethylamino)ethyl 2-(4-isobutylphenyl)propionate hydrochloride spray in adult subjects with clinically symptomatic mild to moderate OA of the knee. For subjects with bilateral knee pain, both knees will be treated, but the most symptomatic knee (i.e., the most painful knee as measured by the Western Ontario and McMaster University Osteoarthritis Index [WOMAC® 3.1] pain subscale score at Screening) will be designated as the target knee for efficacy analyses. For subjects with unilateral knee pain, only the symptomatic (target) knee will be treated.
After a Screening Period of up to 3 weeks and radiographic evaluation of the target knee joint space, a subject will be randomly assigned to 1 of 3 treatment groups in a 1:1:1 ratio with a 2:1 ratio of active:placebo within each treatment group (ie, 2 subjects to active treatment and 1 subject to placebo): • Group A: 8.75 mg 2-(diethylamino)ethyl 2-(4-isobutylphenyl)propionate/knee (2 sprays/knee, one spray to the medial surface and one spray to the lateral surface of the knee), twice daily (BID, approximately every 12 hours; n=50) or placebo (2 sprays/knee), BID (approximately every 12 hours; n=25) for a total of 4 sprays per knee per day; • Group B: 17.5 mg 2-(diethylamino)ethyl 2-(4-isobutylphenyl)propionate/knee (4 sprays/knee, one spray to the medial surface and one spray to the lateral surface of the knee, and one spray to front and one spray to the back of the knee), BID (approximately every 12 hours; n=50) or placebo (4 sprays/knee), BID (approximately every 12 hours; n=25) for a total of 8 sprays per knee per day; • Group C: 35 mg 2-(diethylamino)ethyl 2-(4-isobutylphenyl)propionate/knee (8 sprays/knee, each spray is to be applied to a different non-overlapping area around the knee, and the areas are to be uniformly distributed around the knee), BID (approximately every 12 hours; n=50) or placebo (8 sprays/knee), BID (approximately every 12 hours; n=25) for a total of 16 sprays per knee per day.
The VAS version of the WOMAC will be used for the Primary and Secondary Efficacy Endpoints. Efficacy endpoints will be assessed at Screening and Baseline (Day 1) and at the Week 2, Week 4, Week 8, and Week 12/EOS visits.
The Primary Efficacy Endpoint is the change from Baseline in the WOMAC (VAS) pain subscale score for the target knee at […] of treatment.
3.9.2. Secondary Efficacy Endpoints: • 1. Change from Baseline in the WOMAC (VAS) pain subscale score for the target knee at 2, 4, and 8 weeks of treatment; • 2. Change from Baseline in the WOMAC (VAS) stiffness subscale scores for the target knee and WOMAC (VAS) functional ability subscale scores at 2, 4, 8, and 12 weeks of treatment; • 3. Change from Baseline in the overall WOMAC (VAS) score at 2, 4, 8, and 12 weeks of treatment.
The Primary Efficacy Endpoint is change from Baseline in the WOMAC (VAS) pain subscale score for the target knee at 4 weeks of treatment, and will be analyzed using an analysis of covariance (ANCOVA). Treatment will be included as a fixed class effect and WOMAC Baseline pain subscale score as covariates. The primary comparisons of interest will be the difference between active Group A (8.75 mg 2-(diethylamino)ethyl 2-(4-isobutylphenyl)propionate/knee) and combined placebo, active Group B (17.5 mg 2-(diethylamino)ethyl 2-(4-isobutylphenyl)propionate/knee) and combined placebo, and active Group C (35 mg 2-(diethylamino)ethyl 2-(4-isobutylphenyl)propionate/knee) and combined placebo. […]

Structure (SMILES): CCN(CC)CCOC(=O)C(C)c1ccc(CC(C)C)cc1 (stereo not drawn) [2-(diethylamino)ethyl 2-(4-isobutylphenyl)propionate]
- reduction of pain WOMAC from baseline to week 12 (5 patients on second batch active drug kits): 81-98%
- WOMAC Pain Subscale Score, Avg. (Day 1): 59.2
- WOMAC Pain Subscale Score, Avg. (Follow-up): 35.2
- WOMAC Pain Subscale Score, Avg. (Week 2): 46.6
- WOMAC Pain Subscale Score, Avg. (Week 4): 41.5
- WOMAC Pain Subscale Score, Avg. (Week 8): 37.0
- WOMAC Pain Subscale Score, Avg. (Week 12): 33.8
- WOMAC Pain Subscale Score, cohort Avg. (Follow-up): 39.7
- difference of LS mean (8.75 mg-control), change from baseline in WOMAC pain subscale score (Week 2): 6.7 mm
- difference of LS mean (8.75 mg-control), change from baseline in WOMAC pain subscale score (Week 4): 10.5 mm
- difference of LS mean (8.75 mg-control), change from baseline in WOMAC pain subscale score (Week 8): 7.9 mm
- difference of LS mean (8.75 mg-control), change from baseline in WOMAC pain subscale score (Week 12/EOS): 8.6 mm
- Change from baseline in WOMAC pain subscale score, LS mean (95% ci) (Week 2): −7.5 (−13.3, −1.7) mm
- Change from baseline in WOMAC pain subscale score, LS mean (95% ci) (Week 4): −10.6 (−17.1, −4.1) mm
- Change from baseline in WOMAC pain subscale score, LS mean (95% ci) (Week 8): −15.7 (−22.5, −8.8) mm
- Change from baseline in WOMAC pain subscale score, LS mean (95% ci) (Week 12/EOS): −16.1 (−23.6, −8.6) mm
- difference of LS mean (testing Drug-control), change from baseline in WOMAC pain subscale score (Week 2): −11.5 mm
- difference of LS mean (testing Drug-control), change from baseline in WOMAC pain subscale score (Week 4): −12.8 mm
- difference of LS mean (testing Drug-control), change from baseline in WOMAC pain subscale score (Week 8): −6.0 mm
- difference of LS mean (testing Drug-control), change from baseline in WOMAC pain subscale score (Week 12/EOS): −4.1 mm
- Change from baseline in WOMAC pain subscale score, LS mean (Week 2): −15.6 mm
- Change from baseline in WOMAC pain subscale score, LS mean (Week 4): −21.2 mm
- Change from baseline in WOMAC pain subscale score, LS mean (Week 8): −24.0 mm
- Change from baseline in WOMAC pain subscale score, LS mean (Week 12/EOS): −26.9 mm
- WOMAC Pain Subscale, WOMAC VAS Score (Patient 1056, second batch active drug kits, Day 1): 51.8 mm
- WOMAC Pain Subscale, WOMAC VAS Score (Patient 1056, second batch active drug kits, Follow Up): 10.0 mm
- WOMAC Pain Subscale, WOMAC VAS Score (Patient 1056, second batch active drug kits, Week 2): 31.0 mm
- WOMAC Pain Subscale, WOMAC VAS Score (Patient 1056, second batch active drug kits, Week 4): 22.6 mm
- WOMAC Pain Subscale, WOMAC VAS Score (Patient 1056, second batch active drug kits, Week 8): 28.0 mm
- WOMAC Pain Subscale, WOMAC VAS Score (Patient 1056, second batch active drug kits, Week 12): 12.0 mm
- WOMAC Pain Subscale, WOMAC VAS Score (Patient 1064, second batch active drug kits, Day 1): 32.6 mm
- WOMAC Pain Subscale, WOMAC VAS Score (Patient 1064, second batch active drug kits, Follow Up): 1.6 mm
- WOMAC Pain Subscale, WOMAC VAS Score (Patient 1064, second batch active drug kits, Week 2): 21.6 mm
- WOMAC Pain Subscale, WOMAC VAS Score (Patient 1064, second batch active drug kits, Week 4): 1.8 mm
- WOMAC Pain Subscale, WOMAC VAS Score (Patient 1064, second batch active drug kits, Week 8): 1.0 mm
- WOMAC Pain Subscale, WOMAC VAS Score (Patient 1064, second batch active drug kits, Week 12): 0 mm
- WOMAC Pain Subscale, WOMAC VAS Score (Patient 1535, second batch active drug kits, Day 1): 40.4 mm
- WOMAC Pain Subscale, WOMAC VAS Score (Patient 1535, second batch active drug kits, Follow Up): 0.0 mm
- WOMAC Pain Subscale, WOMAC VAS Score (Patient 1535, second batch active drug kits, Week 2): 2.8 mm
- WOMAC Pain Subscale, WOMAC VAS Score (Patient 1535, second batch active drug kits, Week 4): 2.6 mm
- WOMAC Pain Subscale, WOMAC VAS Score (Patient 1535, second batch active drug kits, Week 8): 4.0 mm
- WOMAC Pain Subscale, WOMAC VAS Score (Patient 1535, second batch active drug kits, Week 12): 0.6 mm
- WOMAC Pain Subscale, WOMAC VAS Score (Patient 1539, second batch active drug kits, Day 1): 63.0 mm
- WOMAC Pain Subscale, WOMAC VAS Score (Patient 1539, second batch active drug kits, Follow Up): 5.0 mm
- WOMAC Pain Subscale, WOMAC VAS Score (Patient 1539, second batch active drug kits, Week 2): 47.6 mm
- WOMAC Pain Subscale, WOMAC VAS Score (Patient 1539, second batch active drug kits, Week 4): 48.2 mm
- WOMAC Pain Subscale, WOMAC VAS Score (Patient 1539, second batch active drug kits, Week 8): 1.8 mm
- WOMAC Pain Subscale, WOMAC VAS Score (Patient 1539, second batch active drug kits, Week 12): 9.4 mm
- WOMAC Pain Subscale, WOMAC VAS Score (Patient 9032, second batch active drug kits, Day 1): 16.6 mm
- WOMAC Pain Subscale, WOMAC VAS Score (Patient 9032, second batch active drug kits, Follow Up): 3.0 mm
- WOMAC Pain Subscale, WOMAC VAS Score (Patient 9032, second batch active drug kits, Week 2): 11.2 mm
- WOMAC Pain Subscale, WOMAC VAS Score (Patient 9032, second batch active drug kits, Week 4): 6.2 mm
- WOMAC Pain Subscale, WOMAC VAS Score (Patient 9032, second batch active drug kits, Week 8): 4.4 mm
- WOMAC Pain Subscale, WOMAC VAS Score (Patient 9032, second batch active drug kits, Week 12): 3.2 mm
- WOMAC Pain Subscale Score, cohort Avg. (Week 2): 48.6
- WOMAC Pain Subscale Score, cohort Avg. (Week 4): 42.8
- WOMAC Pain Subscale Score, cohort Avg. (Week 8): 38.4
- WOMAC Pain Subscale Score, cohort Avg. (Week 12): 38.2
- WOMAC Pain Subscale Score (Day 1): 59.4
- WOMAC Pain Subscale Score (Follow-up): 67.0
